Experimental data taken from patent publication US8106055B2, “Substituted amide compounds” (Gruenenthal GmbH, priority 2007, dated 2012).

What was measured:
[1] = biological target: T1, serotonin (5-HT) reuptake (Rattus norvegicus, UniProt P31652); assay: Inhibition of serotonin (5HT) reuptake in synaptosomes from rat brain; format: biochemical; details: test concentration of 10 μM; read-out: 5-HT (inhibition of reuptake of serotonin, % inhibition)
T1 construct: synaptosomes are freshly isolated from areas of the rat brain; from tissue; host or cells: rat brain synaptosomes (P2 fraction)
How it was run: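 Compounds screened at 10 μM and reported as percent inhibition of serotonin uptake. Uptake measured in a freshly prepared P2 synaptosomal fraction from rat brain.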

[2] = biological target: T2, human bradykinin 1 receptor (B1R) (Homo sapiens, UniProt P46663); assay: Functional investigation on the human bradykinin 1 receptor (B1R), Ca2+ FLIPR assay in CHO K1 hB1R cells; format: cell-based; details: CHO-K1, B1R antagonism human; test substance 10 μM; Ca2+ FLIPR, CHO K1 hB1R cells; read-out: B1R Ant. h [10 μM] % Inhibition
T2 construct: expressed in transfected cells; host or cells: CHO K1 cells
T2 sequence (P46663 1-353): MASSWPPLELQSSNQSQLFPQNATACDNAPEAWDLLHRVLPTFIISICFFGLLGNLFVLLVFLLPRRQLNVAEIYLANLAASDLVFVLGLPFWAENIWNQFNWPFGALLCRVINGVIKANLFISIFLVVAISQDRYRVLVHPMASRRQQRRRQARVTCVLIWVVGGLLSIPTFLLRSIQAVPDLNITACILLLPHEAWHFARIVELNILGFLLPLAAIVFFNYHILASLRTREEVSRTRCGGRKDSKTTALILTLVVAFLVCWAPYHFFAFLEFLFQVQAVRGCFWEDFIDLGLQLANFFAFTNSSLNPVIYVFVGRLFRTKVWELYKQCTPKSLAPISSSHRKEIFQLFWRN
How it was run: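 Peak Ca2+-dependent fluorescence in B1R-transfected CHO K1 cells measures antagonism of an EC80 agonist challenge given 10-20 min after compound. Agonist is Lys-Des-Arg9-bradykinin for human, Des-Arg9-bradykinin for rat receptor.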

T1 sequence (P31652 whole entry): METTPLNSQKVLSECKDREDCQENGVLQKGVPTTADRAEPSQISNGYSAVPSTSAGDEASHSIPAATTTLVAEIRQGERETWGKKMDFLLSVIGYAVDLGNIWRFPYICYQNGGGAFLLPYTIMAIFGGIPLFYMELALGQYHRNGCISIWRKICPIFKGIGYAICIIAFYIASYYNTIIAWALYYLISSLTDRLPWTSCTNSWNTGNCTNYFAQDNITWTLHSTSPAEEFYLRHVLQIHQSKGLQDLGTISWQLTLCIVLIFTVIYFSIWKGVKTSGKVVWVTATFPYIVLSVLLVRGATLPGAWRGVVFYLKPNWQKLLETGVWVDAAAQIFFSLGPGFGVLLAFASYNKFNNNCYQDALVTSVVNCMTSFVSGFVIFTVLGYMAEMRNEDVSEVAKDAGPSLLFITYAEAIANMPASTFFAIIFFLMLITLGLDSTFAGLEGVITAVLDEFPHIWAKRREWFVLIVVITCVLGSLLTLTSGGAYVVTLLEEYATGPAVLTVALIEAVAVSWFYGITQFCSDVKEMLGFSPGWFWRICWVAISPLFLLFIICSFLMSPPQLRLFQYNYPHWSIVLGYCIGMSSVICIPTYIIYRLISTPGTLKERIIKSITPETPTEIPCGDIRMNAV

Row | Structure (SMILES) | inhibition at 10 µM [1] | inhibition at 10 µM [2]
1 | CN(C)C(c1cccc(F)c1)C1CCC(NC(=O)COC2CCN(S(=O)(=O)c3ccc(F)cc3)C2)CC1 (centres unmarked) [Example 172, N-(4-((dimethylamino)(3-fluorophenyl)methyl)cyclohexyl)-2-(1-(4-fluorophenylsulfonyl)pyrrolidin-3-yloxy)acetamide] | 79% | -12%
2 | COc1cc(C)c(S(=O)(=O)N2CCC(OCC(=O)NC3CCC(C(c4cccc(F)c4)N(C)C)CC3)C2)c(C)c1C (centres unmarked) [Example 189, N-(4-((dimethylamino)(3-fluorophenyl)methyl)cyclohexyl)-2-(1-(4-methoxy-2,3,6-trimethylphenylsulfonyl)pyrrolidin-3-yloxy)acetamide] | 96% | 47%
3 | CN(C)C(c1cccs1)C1CCC(CNC(=O)COC2CCCCC2N(C)S(=O)(=O)c2ccc(Cl)c(Cl)c2)CC1 (centres unmarked) [Example 31, 2-(2-(3,4-dichloro-N-methylphenylsulfonamido)cyclohexyloxy)-N-((4-((dimethylamino)(thiophen-2-yl)methyl)cyclohexyl)methyl)acetamide] | 88% | 10%
4 | COc1ccc(S(=O)(=O)N(C)CCOCC(=O)NCC2CCC(C(c3ccccc3)N(C)C)CC2)cc1OC (centres unmarked) [Example 169, 2-(2-(3,4-dimethoxy-N-methylphenylsulfonamido)ethoxy)-N-((4-((dimethylamino)(phenyl)methyl)cyclohexyl)methyl)acetamide] | 94% | -4%
5 | CN(C)C(c1cccc(F)c1)C1CCC(CNC(=O)COCCN(C)S(=O)(=O)c2ccc(Cl)cc2)CC1 (centres unmarked) [Example 158, 2-(2-(4-chloro-N-methylphenylsulfonamido)ethoxy)-N-((4-((dimethylamino)(3-fluorophenyl)methyl)cyclohexyl)methyl)acetamide] | 91% | 20%
6 | COc1cc(C)c(S(=O)(=O)N2CCC(CCOCC(=O)NCC3CCC(C(c4ccccc4)N(C)C)CC3)CC2)c(C)c1C (centres unmarked) [Example 146, N-((4-((dimethylamino)(phenyl)methyl)cyclohexyl)methyl)-2-(2-(1-(4-methoxy-2,3,6-trimethylphenylsulfonyl)piperidin-4-yl)ethoxy)acetamide] | 95% | 23%
7 | CN(C)C(c1ccccc1)C1CCC(NC(=O)COCCN(C)S(=O)(=O)c2c(F)c(F)c(F)c(F)c2F)CC1 (centres unmarked) [Example 136, N-(4-((dimethylamino)(phenyl)methyl)cyclohexyl)-2-(2-(2,3,4,5,6-pentafluoro-N-methylphenylsulfonamido)ethoxy)acetamide] | 83% | 87%
8 | COc1ccc(S(=O)(=O)N2CCCCC2COCC(=O)NCCC2CCC(C(c3cccc(F)c3)N(C)C)CC2)cc1 (centres unmarked) [Example 180, N-(2-(4-((dimethylamino)(3-fluorophenyl)methyl)cyclohexyl)ethyl)-2-((1-(4-methoxyphenylsulfonyl)piperidin-2-yl)methoxy)acetamide] | 93% | 62%
9 | COc1cc(C)c(S(=O)(=O)N2CCC(CCOCC(=O)NC3CCC(C(c4ccc(F)cc4)N(C)C)CC3)CC2)c(C)c1C (centres unmarked) [Example 178, N-(4-((dimethylamino)(4-fluorophenyl)methyl)cyclohexyl)-2-(2-(1-(4-methoxy-2,3,6-trimethylphenylsulfonyl)piperidin-4-yl)ethoxy)acetamide] | 94% | 24%
10 | COc1cc(C)c(S(=O)(=O)N2CCN(CCOCC(=O)NC3CCC(C(c4ccccc4)N(C)C)CC3)CC2)c(C)c1C (centres unmarked) [Example 20, N-(4-((dimethylamino)(phenyl)methyl)cyclohexyl)-2-(2-(4-(4-methoxy-2,3,6-trimethylphenylsulfonyl)piperazin-1-yl)ethoxy)acetamide] | 96% | 101%
11 | Cc1cc(C)c(S(=O)(=O)N2CCC(OCC(=O)NC3CCC(C(c4cccc(F)c4)N(C)C)CC3)C2)c(C)c1 (centres unmarked) [Example 140, N-(4-((dimethylamino)(3-fluorophenyl)methyl)cyclohexyl)-2-(1-(mesitylsulfonyl)pyrrolidin-3-yloxy)acetamide] | 72% | 43%
12 | COc1ccc(S(=O)(=O)N2CCC(OCC(=O)NCC3CCC(C(c4ccccc4)N(C)C)CC3)C2)cc1OC (centres unmarked) [Example 22, 2-(1-(3,4-dimethoxyphenylsulfonyl)pyrrolidin-3-yloxy)-N-((4-((dimethylamino)(phenyl)methyl)cyclohexyl)methyl)acetamide] | 87% | 0%
13 | CCN(CCOCC(=O)NCC1CCC(C(c2cccs2)N(C)C)CC1)S(=O)(=O)c1c(C)cc(OC)c(C)c1C (centres unmarked) [Example 16, N-((4-((dimethylamino)(thiophen-2-yl)methyl)cyclohexyl)methyl)-2-(2-(N-ethyl-4-methoxy-2,3,6-trimethylphenylsulfonamido)ethoxy)acetamide] | 98% | 86%
14 | COc1ccc(S(=O)(=O)N2CCCCC2COCC(=O)NCC2CCC(C(c3cccc(F)c3)N(C)C)CC2)c(OC)c1 (centres unmarked) [Example 151, 2-((1-(2,4-dimethoxyphenylsulfonyl)piperidin-2-yl)methoxy)-N-((4-((dimethylamino)(3-fluorophenyl)methyl)cyclohexyl)methyl)acetamide] | 87% | 24%
15 | COc1cc(C)c(S(=O)(=O)N(CCOCC(=O)NC2CCC(C(c3ccccc3)N(C)C)CC2)Cc2ccccc2)c(C)c1C (centres unmarked) [Example 193, 2-(2-(N-benzyl-4-methoxy-2,3,6-trimethylphenylsulfonamido)ethoxy)-N-(4-((dimethylamino) (phenyl)methyl)cyclohexyl)acetamide] | 92% | 97%
16 | CN(C)C(c1cccs1)C1CCC(CCNC(=O)COC2CCN(S(=O)(=O)c3ccc(F)cc3)C2)CC1 (centres unmarked) [Example 138, N-(2-(4-((dimethylamino)(thiophen-2-yl)methyl)cyclohexyl)ethyl)-2-(1-(4-fluorophenylsulfonyl)pyrrolidin-3-yloxy)acetamide] | 98% | 2%
17 | COc1ccc(S(=O)(=O)N2CCCCC2COCC(=O)NCCC2CCC(C(c3cccc(F)c3)N(C)C)CC2)cc1OC (centres unmarked) [Example 191, 2-((1-(3,4-dimethoxyphenylsulfonyl)piperidin-2-yl)methoxy)-N-(2-(4-((dimethylamino)(3-fluorophenyl)methyl)cyclohexyl)ethyl)acetamide] | 89% | -16%
18 | CN(C)C(c1cccs1)C1CCC(NC(=O)COCCN(C)S(=O)(=O)c2cccc(C(F)(F)F)c2)CC1 (centres unmarked) [Example 152, N-(4-((dimethylamino)(thiophen-2-yl)methyl)cyclohexyl)-2-(2-(N-methyl-3-(trifluoromethyl)phenylsulfonamido)ethoxy)acetamide] | 87% | 16%
19 | COc1ccc(S(=O)(=O)N(C)CCOCC(=O)NCC2CCC(C(c3cccs3)N(C)C)CC2)cc1 (centres unmarked) [Example 142, N-((4-((dimethylamino)(thiophen-2-yl)methyl)cyclohexyl)methyl)-2-(2-(4-methoxy-N-methylphenylsulfonamido)ethoxy)acetamide] | 70% | 50%
